We go through 24 compounds from patent US9144239B2, “Macrocyclic picolinamides as fungicides” (DOW AGROSCIENCES LLC, priority 2012, dated 2015).

Assay [1] has as its system Puccinia triticina; synonym: Puccinia recondita f. sp. tritici. In words: Fungicidal activity: wheat brown rust (PUCCRT), wheat seedlings. In kind it is in vivo. Here is the method: Technical grades of materials were dissolved in acetone, which were then mixed with nine volumes of water containing 110 ppm Triton X-100. The fungicide solutions were applied onto wheat seedlings using an automated booth sprayer to run-off. All sprayed plants were allowed to air dry prior to further handling. Wheat plants (variety Yuma) were grown from seed in a greenhouse in 50% mineral soil/50% soil-less Metro mix until the first leaf was fully emerged, with 7-10 seedlings per pot. These plants were inoculated with an aqueous spore suspension of Septoria tritici either prior to or after fungicide treatments. After inoculation the plants were kept in 100% relative humidity (one day in a dark dew chamber followed by two to three days in a lighted dew chamber at 20° C.) to permit spores to germinate and infect the leaf. The plants were then transferred to a greenhouse set at 20° C. for disease to develop. When disease symptoms were fully expressed on the 1st leaves of untreated plants, infection levels were assessed on a scale of 0 to 100 percent disease severity. Percent disease control was calculated using the ratio of disease severity on treated plants relative to untreated plants. Evaluation of Fungicidal Activity: Wheat Brown Rust (Puccinia […]; Synonym: Puccinia recondita f. Sp. Tritici; Bayer Code PUCCRT) Wheat plants (variety Yuma) were grown from seed in a greenhouse in 50% mineral soil/50% soil-less Metro mix until the first leaf was fully emerged, with 7-10 seedlings per pot. These plants were inoculated with an aqueous spore suspension of Puccinia triticina either prior to or after fungicide treatments. After inoculation the plants were kept in a dark dew room at 22° C. with 100% relative humidity overnight to permit spores to germinate and infect the leaf. The plants were then transferred to a greenhouse set at 24° C. for disease to develop. Fungicide formulation, application and disease assessment followed the procedures as described in the Example A.

In assay [2] the test system is Mycosphaerella graminicola; anamorph: Septoria tritici. The assay can be described thus: Fungicidal activity: leaf blotch of wheat (SEPTTR), wheat seedlings. Particulars: Zymoseptoria tritici. In kind it is in vivo. Here is the method: Evaluation of Fungicidal Activity: Leaf Blotch of Wheat (Mycosphaerella Graminicola; Anamorph: Septoria tritici; Bayer Code […]) Technical grades of materials were dissolved in acetone, which were then mixed with nine volumes of water containing 110 ppm Triton X-100. The fungicide solutions were applied onto wheat seedlings using an automated booth sprayer to run-off. All sprayed plants were allowed to air dry prior to further handling. Wheat plants (variety Yuma) were grown from seed in a greenhouse in 50% mineral soil/50% soil-less Metro mix until the first leaf was fully emerged, with 7-10 seedlings per pot. These plants were inoculated with an aqueous spore suspension of Septoria tritici either prior to or after fungicide treatments. After inoculation the plants were kept in 100% relative humidity (one day in a dark dew chamber followed by two to three days in a lighted dew chamber at 20° C.) to permit spores to germinate and infect the leaf. The plants were then transferred to a greenhouse set at 20° C. for disease to develop. When disease symptoms were fully expressed on the 1st leaves of untreated plants, infection levels were assessed on a scale of 0 to 100 percent disease severity. Percent disease control was calculated using the ratio of disease severity on treated plants relative to untreated plants.

Setting [3] is: 24 h, 100 ppm, 1 Day Protectant, wheat, read-out: Disease Control PUCCRT 1DP.
Setting [4] is: 72 h, 100 ppm, 3 Day Curative, wheat, read-out: Disease Control PUCCRT 3DC.
Setting [5] is: 24 h, 100 ppm, 1 Day Protectant, wheat, read-out: Disease Control SEPTTR 1DP.
Setting [6] is: 72 h, 100 ppm, 3 Day Curative, wheat, read-out: Disease Control SEPTTR 3DC.

Each structure is given as a SMILES string. Read-outs that look alike come from different tables or passages of the source.

`CCCCO[C@H]1COC[C@H](NC(=O)c2nccc(OC)c2O)C(=O)O[C@@H](C)[C@@H]1OC(=O)C(C)C` [Compound 46, (3S,6S,7S,8S)-8-butoxy-3-(3-hydroxy-4-methoxypicolinamido)-6-methyl-4-oxo-1,5-dioxonan-7-yl isobutyrate]: the pest or weed control at 100 ppm in assay [1] (24 h, read-out: Disease Control PUCCRT 1DP) lay within 80 to 100%; in assay [1] (72 h, read-out: Disease Control PUCCRT 3DC), 80 to 100%; in assay [2] (24 h, read-out: Disease Control SEPTTR 1DP) it was 80 to 100%; in assay [2] (72 h, read-out: Disease Control SEPTTR 3DC), 80 to 100%.
Turning to `CC[C@H]1OC(=O)[C@H](NC(=O)c2nccc(OC)c2OCOC(C)=O)COC[C@H](OCC(C)C)[C@H]1OCC(C)C` [Compound 24], the pest or weed control at 100 ppm in assay [1] (setting [3]), in assay [1] (setting [4]), in assay [2] (setting [5]) and in assay [2] (setting [6]) was 0 to 80% in each case.
For the compound `COc1ccnc(C(=O)N[C@H]2COC[C@H](Oc3cc(C)cc(C)c3)[C@@H](Oc3cc(C)cc(C)c3)[C@H](C)OC2=O)c1O` [Compound 198], the pest or weed control at 100 ppm is 0 to 80% in assay [1] (setting [3]) and 80 to 100% in assay [2] (setting [5]).
With `COc1ccnc(C(=O)N[C@H]2COC[C@H](OCC3CC3)[C@@H](OCC3CC3)[C@H](C)OC2=O)c1OCOC(C)=O` [Compound 233], the pest or weed control at 100 ppm in assay [1] (setting [3]) was 80 to 100%; in assay [1] (setting [4]), 80 to 100%; in assay [2] (setting [5]), 80 to 100%; in assay [2] (setting [6]), 0 to 80%.
Take `COc1ccnc(C(=O)N[C@H]2COC[C@H](Oc3ccccc3)[C@@H](OC3CCCC3)[C@H](C)OC2=O)c1OCOC(C)=O` [Compound 224]: the pest or weed control at 100 ppm in assay [1] (setting [3]), in assay [1] (setting [4]), in assay [2] (setting [5]) and in assay [2] (setting [6]) was 80 to 100% throughout.
For the compound `COc1ccnc(C(=O)N[C@H]2COC[C@H](Oc3ccc(C)cc3)[C@@H](Oc3ccc(C)cc3)[C@H](C)OC2=O)c1OCOC(C)=O` [Compound 226], the pest or weed control at 100 ppm in assay [1] (setting [3]), in assay [1] (setting [4]), in assay [2] (setting [5]) and in assay [2] (setting [6]) was 80 to 100% in each case.
With `COc1ccnc(C(=O)N[C@@H]2COC[C@H](OCC(C)C)[C@@H](OCC(C)C)[C@@H](COCC(C)C)OC2=O)c1OCOC(C)=O` [Compound 18], the pest or weed control at 100 ppm in assay [1] (setting [3]), in assay [1] (setting [4]) and in assay [2] (setting [5]) was 0 to 80% throughout.
Take `COc1ccnc(C(=O)N[C@@H]2COC[C@H](OCC(C)C)[C@@H](OCC(C)C)[C@@H](COCC(C)C)OC2=O)c1O` [Compound 16]: the pest or weed control at 100 ppm in assay [1] (setting [3]), in assay [1] (setting [4]) and in assay [2] (setting [5]) was 0 to 80% throughout.
Regarding `COc1ccc(O[C@H]2[C@H](C)OC(=O)[C@@H](NC(=O)c3nccc(OC)c3O)COC[C@@H]2OC(=O)C(C)C)cc1` [Compound 199], the values for the pest or weed control at 100 ppm in assay [1] (setting [3]) and in assay [2] (setting [5]) were 80 to 100% and 0 to 80%, respectively.
Turning to `COc1ccnc(C(=O)N[C@H]2CO[C@@H](C)[C@H](OCC(C)C)[C@@H](OCC(C)C)COC2=O)c1OCOC(=O)C(C)C` [Compound 7], the pest or weed control at 100 ppm in assay [1] (setting [3]), in assay [2] (setting [5]) and in assay [2] (setting [6]) was 80 to 100% throughout.
On to `COc1ccc(O[C@H]2[C@H](C)OC(=O)[C@@H](NC(=O)c3nccc(OC)c3OCOC(C)=O)COC[C@@H]2Oc2ccc(OC)cc2)cc1` [Compound 220], for which the pest or weed control at 100 ppm in assay [1] (setting [3]), in assay [1] (setting [4]), in assay [2] (setting [5]) and in assay [2] (setting [6]) was 80 to 100% in each case.
As for `CCC(C)(C)O[C@H]1[C@H](C)OC(=O)[C@@H](NC(=O)c2nccc(OC)c2O)COC[C@@H]1OCC(C)C` [Compound 79], the pest or weed control at 100 ppm in assay [1] (setting [3]), in assay [1] (setting [4]), in assay [2] (setting [5]) and in assay [2] (setting [6]) was 80 to 100% in each case.
As for `CCCO[C@H]1[C@H](C)OC(=O)[C@@H](NC(=O)c2nccc(OC)c2O)COC[C@@H]1Oc1ccccc1` [Compound 203], the pest or weed control at 100 ppm in assay [1] (setting [3]), in assay [1] (setting [4]), in assay [2] (setting [5]) and in assay [2] (setting [6]) was 80 to 100% throughout.
For the compound `COc1ccnc(C(=O)N[C@H]2CO[C@@H](C)[C@H](OCC(C)C)[C@@H](OCC(C)C)COC2=O)c1O` [Compound 4], the pest or weed control at 100 ppm in assay [1] (setting [3]), in assay [2] (setting [5]) and in assay [2] (setting [6]) was 80 to 100% in each case.
`CCCCO[C@H]1COC[C@H](NC(=O)c2nccc(OC)c2OCOC(C)=O)C(=O)O[C@@H](C)[C@@H]1OC` [Compound 37]: the pest or weed control at 100 ppm in assay [1] (setting [3]) lay within 80 to 100%; in assay [1] (setting [4]), 80 to 100%; in assay [2] (setting [5]), 0 to 80%; in assay [2] (setting [6]), 0 to 80%.
Regarding `CCCCO[C@H]1COC[C@H](NC(=O)c2nccc(OC)c2OCOC(C)=O)C(=O)O[C@@H](C)[C@@H]1OCC(C)C` [Compound 50], the pest or weed control at 100 ppm in assay [1] (setting [3]), in assay [1] (setting [4]), in assay [2] (setting [5]) and in assay [2] (setting [6]) was 80 to 100% throughout.
As for `COc1ccnc(C(=O)N[C@H]2COC[C@H](OCCCc3ccccc3)[C@@H](OCCCc3ccccc3)[C@H](C)OC2=O)c1O` [Compound 59], the pest or weed control at 100 ppm in assay [1] (setting [3]) was 80 to 100%; in assay [1] (setting [4]) it was 80 to 100%; in assay [2] (setting [5]), 80 to 100%; in assay [2] (setting [6]), 0 to 80%.
For `COc1ccnc(C(=O)N[C@@H]2COC[C@@H](OCc3ccccc3)[C@H](OCc3ccccc3)[C@H](C)OC2=O)c1OCOC(C)=O` [Compound 41], the pest or weed control at 100 ppm in assay [1] (setting [3]), in assay [2] (setting [5]) and in assay [2] (setting [6]) was 0 to 80% each time.
For `CCOCC(=O)OCOc1c(OC)ccnc1C(=O)N[C@H]1COC[C@H](Oc2ccc(F)cc2)[C@@H](OCC(C)C)[C@H](C)OC1=O` [Compound 227], the pest or weed control at 100 ppm in assay [1] (setting [3]), in assay [1] (setting [4]), in assay [2] (setting [5]) and in assay [2] (setting [6]) was 80 to 100% in each case.
For `COc1ccnc(C(=O)N[C@H]2COC[C@H](Oc3ccccc3)[C@@H](OC3CCCC3)[C@H](C)OC2=O)c1O` [Compound 205], the pest or weed control at 100 ppm in assay [1] (setting [3]), in assay [1] (setting [4]), in assay [2] (setting [5]) and in assay [2] (setting [6]) was 80 to 100% in each case.
Take `COc1ccnc(C(=O)N[C@H]2CO[C@@H](C)C(OCc3ccccc3)C(OCc3ccccc3)[C@H](C)OC2=O)c1OCOC(C)=O` (stereo partly shown) [Compound 28]: the pest or weed control at 100 ppm in assay [1] (setting [3]), in assay [1] (setting [4]), in assay [2] (setting [5]) and in assay [2] (setting [6]) was 80 to 100% each time.
On to `COc1ccnc(C(=O)N[C@H]2CO[C@@H](C)[C@H](OCc3ccccc3)[C@@H](OCc3ccccc3)[C@H](C)OC2=O)c1O` [Compound 25], for which the pest or weed control at 100 ppm in assay [1] (setting [3]) fell in the range of 80 to 100%; in assay [1] (setting [4]), 0 to 80%; in assay [2] (setting [5]), 80 to 100%; in assay [2] (setting [6]), 0 to 80%.
`COc1ccnc(C(=O)N[C@H]2CO[C@H](C)[C@H]3OC(C)(C)O[C@@H]3[C@@H](C)OC2=O)c1OCOC(C)=O` [Compound 29]: the pest or weed control at 100 ppm in assay [1] (setting [3]), in assay [1] (setting [4]), in assay [2] (setting [5]) and in assay [2] (setting [6]) was 0 to 80% throughout.
On to `COc1ccnc(C(=O)N[C@H]2COC[C@H](Oc3ccccc3)[C@@H](O)[C@H](C)OC2=O)c1O` [Compound 211], for which the pest or weed control at 100 ppm in assay [1] (setting [3]) and in assay [2] (setting [6]) was 0 to 80% each time.
